Laboratory results taken from patent US9375004B2 (Bayer Intellectual Property GmbH, priority 2010, dated 2016).

Assay: logP by HPLC on reversed-phase column (EEC Directive 79/831 Annex V.A8)
Settings: HPLC on reversed-phase column (C 18), EEC Directive 79/831 Annex V.A8

SMILES	logP
CC(C)Oc1cc(NC(=O)c2c(C(F)F)nn(C)c2F)c(Cl)cc1Cl [compound 172]	4.41
CC(C)Oc1cc(NC(=O)c2c(C(F)F)nn(C)c2Cl)c(Cl)cc1Cl [compound 173]	4.68
CCC(C)Oc1cc(NC(=O)c2c(C(F)F)nn(C)c2Cl)ccc1C (stereo not drawn) [compound 178]	4.06
CCC(C)Oc1cc(NC(=O)c2c(C(F)F)nn(C)c2F)ccc1C (stereo not drawn) [compound 179]	3.85
CCOCCOc1cc(NC(=O)c2c(C(F)F)nn(C)c2Cl)ccc1C [compound 184]	3.13
CCOCCOc1cc(NC(=O)c2c(C(F)F)nn(C)c2F)ccc1C [compound 185]	2.96
Cn1nc(C(F)F)c(C(=O)Nc2cccc(C3CC3)c2)c1F [compound 191]	2.90
Cn1nc(C(F)F)c(C(=O)Nc2ccc3c(c2)OCO3)c1F [compound 194]	2.05
Cn1nc(C(F)F)c(C(=O)Nc2ccc3c(c2)OCO3)c1Cl [compound 195]	2.20
Cn1nc(C(F)F)c(C(=O)Nc2cc3c(cc2Br)OC(F)(F)O3)c1F [compound 196]	3.58
Cn1nc(C(F)F)c(C(=O)Nc2ccc3c(c2)OC(F)(F)O3)c1F [compound 197]	2.94
Cn1nc(C(F)F)c(C(=O)Nc2ccc3c(c2)OC(F)(F)C(F)(F)O3)c1F [compound 199]	3.58
Cn1nc(C(F)F)c(C(=O)Nc2ccc3c(c2)OC(F)(F)C(F)(F)O3)c1Cl [compound 200]	3.76
Cc1ccccc1-c1cccc(NC(=O)c2c(C(F)F)nn(C)c2F)c1 [compound 201]	3.63
Cn1nc(C(F)F)c(C(=O)Nc2cccc(-c3ccc(F)cc3)c2)c1F [compound 203]	3.39
Cc1cc(C)cc(-c2cccc(NC(=O)c3c(C(F)F)nn(C)c3F)c2)c1 [compound 205]	4.11
Cc1cc(C)cc(-c2cccc(NC(=O)c3c(C(F)F)nn(C)c3Cl)c2)c1 [compound 206]	4.34
Cn1nc(C(F)F)c(C(=O)Nc2cccc(-c3ccc(Cl)cc3)c2)c1F [compound 207]	3.83
Cn1nc(C(F)F)c(C(=O)Nc2cccc(-c3cc(F)cc(F)c3)c2)c1F [compound 209]	3.62
Cc1cc(C)c(-c2cccc(NC(=O)c3c(C(F)F)nn(C)c3F)c2)c(C)c1 [compound 211]	4.34
CC(C)c1cccc(-c2cccc(NC(=O)c3c(C(F)F)nn(C)c3Cl)c2)c1 [compound 213]	4.61

SMILES	logP
CC(C)c1cccc(-c2cccc(NC(=O)c3c(C(F)F)nn(C)c3F)c2)c1 [compound 214]	4.41
CC(C)c1ccc(-c2cccc(NC(=O)c3c(C(F)F)nn(C)c3F)c2)cc1 [compound 215]	4.46
CC(C)c1ccc(-c2cccc(NC(=O)c3c(C(F)F)nn(C)c3Cl)c2)cc1 [compound 216]	4.68
Cn1nc(C(F)F)c(C(=O)Nc2cccc(-c3ccc(F)c(Cl)c3)c2)c1F [compound 217]	3.89
Cn1nc(C(F)F)c(C(=O)Nc2cccc(-c3ccc(C(C)(C)C)cc3)c2)c1F [compound 219]	4.73
Cn1nc(C(F)F)c(C(=O)Nc2cccc(-c3ccc(C(C)(C)C)cc3)c2)c1Cl [compound 220]	4.93
CC(C)Oc1cccc(-c2cccc(NC(=O)c3c(C(F)F)nn(C)c3F)c2)c1 [compound 221]	3.99
CC(C)Oc1ccc(-c2cccc(NC(=O)c3c(C(F)F)nn(C)c3F)c2)cc1 [compound 223]	3.96
CC(C)Oc1ccc(-c2cccc(NC(=O)c3c(C(F)F)nn(C)c3Cl)c2)cc1 [compound 224]	4.19
Cn1nc(C(F)F)c(C(=O)Nc2cccc(-c3ccc(C(F)(F)F)cc3)c2)c1F [compound 225]	3.99
Cn1nc(C(F)F)c(C(=O)Nc2cccc(-c3cccc(Cl)c3Cl)c2)c1F [compound 227]	3.99
Cn1nc(C(F)F)c(C(=O)Nc2cccc(-c3cccc(Cl)c3Cl)c2)c1Cl [compound 228]	4.21
Cn1nc(C(F)F)c(C(=O)Nc2cccc(-c3ccc(Cl)cc3Cl)c2)c1F [compound 229]	4.21
Cn1nc(C(F)F)c(C(=O)Nc2cccc(-c3ccc(Cl)cc3Cl)c2)c1Cl [compound 230]	4.39
Cn1nc(C(F)F)c(C(=O)Nc2cccc(-c3cc(Cl)cc(Cl)c3)c2)c1F [compound 231]	4.39
Cn1nc(C(F)F)c(C(=O)Nc2cccc(-c3cc(Cl)cc(Cl)c3)c2)c1Cl [compound 232]	4.73
CO/N=C(\C)c1ccc(-c2cccc(NC(=O)c3c(C(F)F)nn(C)c3F)c2)cc1 [compound 233]	3.89
CO/N=C(\C)c1ccc(-c2cccc(NC(=O)c3c(C(F)F)nn(C)c3Cl)c2)cc1 [compound 234]	4.11
CC(C)COc1ccc(-c2cccc(NC(=O)c3c(C(F)F)nn(C)c3F)c2)cc1 [compound 235]	4.61
Cn1nc(C(F)F)c(C(=O)Nc2cccc(-c3cccc([Si](C)(C)C)c3)c2)c1F [compound 237]	4.96
Cn1nc(C(F)F)c(C(=O)Nc2cccc(-c3cccc([Si](C)(C)C)c3)c2)c1Cl [compound 238]	5.17

Further lines, results first:

logP	SMILES
2.70	CCOc1ccc(NC(=O)c2c(C(F)F)nn(C)c2Cl)cc1OCC [compound 168]
3.04	CCCOc1cccc(NC(=O)c2c(C(F)F)nn(C)c2F)c1 [compound 175]
3.33	C=C(C)COc1cccc(NC(=O)c2c(C(F)F)nn(C)c2Cl)c1 [compound 177]
2.15	COCCOc1cccc(NC(=O)c2c(C(F)F)nn(C)c2F)c1 [compound 180]
3.96	Cn1nc(C(F)F)c(C(=O)Nc2cccc(OCC(C)(C)C)c2)c1F [compound 182]
4.19	Cn1nc(C(F)F)c(C(=O)Nc2cccc(OCC(C)(C)C)c2)c1Cl [compound 183]
2.88	Cn1nc(C(F)F)c(C(=O)Nc2cccc(OCC(F)(F)F)c2)c1F [compound 186]
3.06	Cn1nc(C(F)F)c(C(=O)Nc2cccc(OCC(F)(F)F)c2)c1Cl [compound 187]
2.82	Cn1nc(C(F)F)c(C(=O)Nc2cccc(Br)c2)c1F [compound 189]
3.04	Cn1nc(C(F)F)c(C(=O)Nc2cccc(Br)c2)c1Cl [compound 190]
3.11	Cn1nc(C(F)F)c(C(=O)Nc2ccc3c(c2)OC(F)(F)O3)c1Cl [compound 198]
3.83	Cc1ccccc1-c1cccc(NC(=O)c2c(C(F)F)nn(C)c2Cl)c1 [compound 202]
3.59	Cn1nc(C(F)F)c(C(=O)Nc2cccc(-c3ccc(F)cc3)c2)c1Cl [compound 204]
3.83	Cn1nc(C(F)F)c(C(=O)Nc2cccc(-c3cc(F)cc(F)c3)c2)c1Cl [compound 210]
4.11	Cn1nc(C(F)F)c(C(=O)Nc2cccc(-c3ccc(F)c(Cl)c3)c2)c1Cl [compound 218]
4.21	CC(C)Oc1cccc(-c2cccc(NC(=O)c3c(C(F)F)nn(C)c3Cl)c2)c1 [compound 222]
4.19	Cn1nc(C(F)F)c(C(=O)Nc2cccc(-c3ccc(C(F)(F)F)cc3)c2)c1Cl [compound 226]
4.83	CC(C)COc1ccc(-c2cccc(NC(=O)c3c(C(F)F)nn(C)c3Cl)c2)cc1 [compound 236]
